According to patent publication US20260234568A1, “TUMOR STORAGE AND CELL CULTURE COMPOSITIONS” (Iovance Biotherapeutics, Inc., priority 2021, published 2026):
Where two headings read alike, the source gives them in different places.

How the values were obtained:
[1] = tested on: Pre-REP TIL; format: cell-based
Experimental: Phase 1: Small Scale Evaluation of Various Antibiotics in shipping medium and CM1 were conducted in 2 separate rounds using 2 different tumors as shown in Tables 53 and 54. The cultures were terminated after the Pre-REP. All the overnight incubations in HTS included 2.5 μg/mL Amphotericin B (or 10 μg/mL for the “high AmpB concentration” condition) and 50 μg/mL gentamicin
All the test and control conditions were tested in quadruplicates. Total Viable Cells and % Viability was recorded on Day 11 of Pre-REP.

[2] = tested on: E. faecalis; test: Antibiotics on bacterial growth of inoculated tissue fragments (HTS, wash, CM1); format: cell-based; settings: for bacterial growth, visually assessed: inoculated tissue fragments, washed 3×, 11 days
Experimental: Gentamicin (50 μg/mL) • b. […] Vancomycin (100 μg/mL)

[3] = tested on: S. aureus; test: Antibiotics on growth of bacteria in culture media (HTS then CM1); format: cell-based; settings: S. aureus (strain 1), HTS 24 hours at 2-8° C., then CM1 11 days, Gentamicin 50 μg/mL, Vancomycin 100 μg/mL
Experimental: In these experiments, the following antibiotics were added to Gram+bacteria S. aureus and E. faecalis in hypothermosol (HTS) at three different concentrations of bacteria: • a. Gentamicin (50 μg/mL) • b. […] Vancomycin (100 μg/mL)

[4] = tested on: S. aureus; settings: for bacterial growth, visually assessed: S. aureus (strain 1), inoculated tissue fragments, washed 3×, 11 days
Experimental: Additional experiments were performed to test the ability of vancomycin to prevent growth of vancomycin sensitive bacteria in culture medium. In these experiments, tissue fragments were inoculated in HTS with three different loads of S. aureus and E. faecalis bacteria and the following antibiotics: • a.
The 6 HTS inoculates (iHTS) shown were incubated at 24 hours at 2-8° C. and washed 3× with tumor wash buffer with the same concentrations of antibiotics above. The tumor samples were incubated for 11 days and bacterial growth was visually assessed.

[5] = tested on: Pre-REP TIL; test: Phase II full scale Pre-REP: extended phenotype of Day 11 samples; settings: 100 μg/mL in tumor shipping medium and CM1 Pre-REP media
Experimental: The received tumor was separated into 2 equal portions and stored overnight similarly to the overnight incubation in phase I of testing. The chosen antibiotic condition was tested against Gentamicin Sulfate control at full scale Pre-REP according to the Day 0 Gen 2 Batch Record. TVC, viability, identity, function, and extended phenotyping data were obtained.
Both antibiotics were tested in shipping medium and CM1 at a concentration of 100 μg/mL.

[6] = tested on: E. faecalis; test: Antibiotics on growth of bacteria in culture media (HTS then CM1); format: cell-based; settings: HTS 24 hours at 2-8° C., then CM1 11 days, Gentamicin 50 μg/mL, Vancomycin 100 μg/mL
Experimental: Additional experiments were performed to test the ability of vancomycin to prevent growth of vancomycin sensitive bacteria in culture medium. In these experiments, the following antibiotics were added to Gram+bacteria S. aureus and E. faecalis in hypothermosol (HTS) at three different concentrations of bacteria: • a. Gentamicin (50 μg/mL) • b. Gentamicin (50 μg/mL)+Vancomycin (100 μg/mL) • c. Vancomycin (100 μg/mL)
The mixtures were incubated at 24 hours at 2-8° C. and then 1 mL of each of the samples were added to 20 mL of CM1 medium in the same concentrations of antibiotics above. The mixtures were incubated for 11 days and bacterial growth was visually assessed.

C[C@@H]1[C@H](O)[C@@H](C)/C=C/C=C/C=C/C=C/C=C/C=C/C=C/[C@H](O[C@@H]2O[C@H](C)[C@@H](O)[C@H](N)[C@@H]2O)C[C@@H]2O[C@](O)(C[C@@H](O)C[C@@H](O)[C@H](O)CC[C@@H](O)C[C@@H](O)CC(=O)O[C@H]1C)C[C@H](O)[C@H]2C(=O)O [amphotericin B]
cytotoxicity / impact on Pre-REP TIL cell growth (in words) ([1]; Day 11 of Pre-REP, quadruplicates, with 50 μg/mL gentamicin): did not appear cytotoxic

CN[C@H](CC(C)C)C(=O)N[C@H]1C(=O)N[C@@H](CC(N)=O)C(=O)N[C@H]2C(=O)N[C@H]3C(=O)N[C@H](C(=O)N[C@H](C(=O)O)c4cc(O)cc(O)c4-c4cc3ccc4O)[C@H](O)c3ccc(c(Cl)c3)Oc3cc2cc(c3O[C@@H]2O[C@H](CO)[C@@H](O)[C@H](O)[C@H]2O[C@H]2C[C@](C)(N)[C@H](O)[C@H](C)O2)Oc2ccc(cc2Cl)[C@H]1O [vancomycin]
bacterial growth, visually assessed ([2]; Bacterial Load High): No Growth
bacterial growth, visually assessed ([2]; Bacterial Load Low): No Growth
bacterial growth, visually assessed ([2]; Bacterial Load Med): No Growth
bacterial growth (summary in words) ([2]; all the bacterial loads tested): no observed growth
cytotoxicity / impact on Pre-REP TIL cell growth (in words) [1]: least cytotoxicity
bacterial growth, visually assessed [3]: inhibited grown
bacterial growth, visually assessed ([3]; listed as Vanco): No Growth
bacterial growth, visually assessed ([4]; Bacterial Load High): No Growth
bacterial growth, visually assessed ([4]; Bacterial Load Low): No Growth
bacterial growth, visually assessed ([4]; Bacterial Load Med): No Growth
bacterial growth (summary in words) ([4]; S. aureus, all the bacterial loads tested): no observed growth
effect on the Pre-REP cell product (TVC, Viability, Identity, Function, Extended Phenotyping; in words) [5]: no deleterious effect
bacterial growth, visually assessed [6]: inhibited grown
bacterial growth, visually assessed ([6]; listed as Vanco): No Growth
